Test results: patent US20240342292A1, “Compounds for the Degradation of EGFR Kinase” (BeiGene Switzerland GmbH, priority 2021, published 2024)

Key:
[1] = target: T1, L858R/T790M/C797S EGFR (Homo sapiens, UniProt P00533, C797S/L858R/T790M); assay: EGFR degradation HTRF assay in H1975-clone #25 (LTC) cells; assay type: cell-based; conditions: 16h treatment; for DC50: H1975 # 25-LTC (L858R/T790M/C797S), HTRF; for Dmax: NCI-H1975, H1975 # 25-LTC (L858R/T790M/C797S), maximum percentage of degradation
T1 construct: expressed in transfected cells; host or cells: H1975 clone #25 (lentiviral over-expression, endogenous EGFR knocked out by sgRNA)
Summary of the method: (§1)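 Remaining EGFR protein was measured by HTRF (337 nm excitation, 665/620 nm emission) in lysates after overnight antibody incubation. Cells had been exposed for 16 h to an 8-point, 5-fold series starting at 10 uM, and DC50 values were fitted with a Hill equation.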

[2] = test system: Del19/T790M/C797S EGFR; assay: EGFR degradation HTRF assay in H1975-clone #28 (DTC) cells; assay type: cell-based; conditions: H1975 # 28 DTC (Del19/T790M/C797S), 16h treatment; for DC50: HTRF; for Dmax (%): maximum percentage of degradation
Summary of the method: as §1

T1 sequence (P00533 25-1210 T790M/C797S/L858R): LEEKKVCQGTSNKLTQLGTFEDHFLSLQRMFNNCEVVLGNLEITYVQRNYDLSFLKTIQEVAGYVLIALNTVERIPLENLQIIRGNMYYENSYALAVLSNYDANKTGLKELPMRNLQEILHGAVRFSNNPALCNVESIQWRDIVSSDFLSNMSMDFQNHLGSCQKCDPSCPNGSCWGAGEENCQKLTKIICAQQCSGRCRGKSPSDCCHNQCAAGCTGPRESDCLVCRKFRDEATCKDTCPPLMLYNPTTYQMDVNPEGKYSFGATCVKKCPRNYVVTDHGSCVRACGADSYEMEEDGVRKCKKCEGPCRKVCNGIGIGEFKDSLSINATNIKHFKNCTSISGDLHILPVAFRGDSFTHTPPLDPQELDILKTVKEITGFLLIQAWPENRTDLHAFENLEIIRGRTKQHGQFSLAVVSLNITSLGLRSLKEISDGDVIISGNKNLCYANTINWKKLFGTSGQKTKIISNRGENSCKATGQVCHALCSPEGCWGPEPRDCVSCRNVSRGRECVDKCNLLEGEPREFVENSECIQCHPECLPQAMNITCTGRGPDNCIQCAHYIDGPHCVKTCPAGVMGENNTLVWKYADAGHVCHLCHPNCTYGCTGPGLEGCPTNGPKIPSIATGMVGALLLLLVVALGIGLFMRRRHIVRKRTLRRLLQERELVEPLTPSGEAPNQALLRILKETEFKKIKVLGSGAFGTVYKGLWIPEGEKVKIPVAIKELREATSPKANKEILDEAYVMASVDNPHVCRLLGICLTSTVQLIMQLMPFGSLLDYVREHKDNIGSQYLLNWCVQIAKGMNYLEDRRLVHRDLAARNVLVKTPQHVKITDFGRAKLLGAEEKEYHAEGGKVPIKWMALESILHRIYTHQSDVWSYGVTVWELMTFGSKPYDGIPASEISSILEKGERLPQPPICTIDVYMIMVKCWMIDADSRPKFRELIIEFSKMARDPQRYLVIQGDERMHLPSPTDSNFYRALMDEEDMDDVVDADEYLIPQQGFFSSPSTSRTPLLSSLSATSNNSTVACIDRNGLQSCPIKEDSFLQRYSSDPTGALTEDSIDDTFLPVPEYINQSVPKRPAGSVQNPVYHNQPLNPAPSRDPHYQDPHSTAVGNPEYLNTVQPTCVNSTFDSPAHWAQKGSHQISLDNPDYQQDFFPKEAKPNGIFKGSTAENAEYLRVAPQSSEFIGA

Row | SMILES | DC50 [1] | Dmax [1] | DC50 [2] | Dmax (%) [2]
1 | Cc1cc2cc(n1)-c1cnn(C)c1OCCC[C@@H](C)CN1/C(=N/C2=O)Nc2ccc(N3CCC(N4CCC(Oc5cc(F)c([C@H]6CCC(=O)NC6=O)c(F)c5)CC4)CC3)cc21 [Example 381, (R)-3-(2,6-difluoro-4-((1′-((R,E)-1^1,2^6,7-trimethyl-3-oxo-5^2,5^3-dihydro-1^1H,5^1H-11-oxa-4-aza-5(2,1)-benzo[d]imidazola-2(2,4)-pyridina-1(4,5)-pyrazolacycloundecaphane-5^6-yl)-[1,4′-bipiperidin]-4-yl)oxy)phenyl)piperidine-2,6-dione] | 0.9 nM | 83.6% | 1.06 nM | 60.14%
2 | Cc1cc2cc(n1)-c1cnn(C)c1OCCC[C@@H](C)CN1/C(=N/C2=O)Nc2ccc(C(=O)NC3CN(CCc4cc(F)c([C@H]5CCC(=O)NC5=O)c(F)c4)C3)cc21 [Example 307, (R,E)-N-(1-(4-((R)-2,6-dioxopiperidin-3-yl)-3,5-difluorophenethyl)azetidin-3-yl)-1^1,2^6,7-trimethyl-3-oxo-5^2,5^3-dihydro-1^1H,5^1H-11-oxa-4-aza-5(2,1)-benzo[d]imidazola-2(2,4)-pyridina-1(4,5)-pyrazola cycloundecaphane-5^6-carboxamide] | 1.78 nM | 84.8% | 1.28 nM | 52.25%
3 | Cc1cc2cc(n1)-c1cnn(C)c1OCCC[C@@H](C)CN1/C(=N/C2=O)Nc2ccc(N3CCN(C4CCN(c5cc(F)c([C@H]6CCC(=O)NC6=O)c(F)c5)CC4)CC3)cc21 [Example 324, (R)-3-(2,6-difluoro-4-(4-(4-((R,E)-1^1,26,7-trimethyl-3-oxo-5^2,5^3-dihydro-1^1H,5^1H-11-oxa-4-aza-5(2, 1)-benzo[d]imidazola-2(2,4)-pyridina-1(4,5)-pyrazolacycloundecaphane-5^6-yl)piperazin-1-yl)piperidin-1-yl)phenyl)piperidine-2,6-dione] | 1.02 nM | 91.1% | 0.859 nM | 78.7%
4 | Cc1cc2cc(n1)-c1cnn(C)c1OCCC[C@@H](C)CN1/C(=N/C2=O)Nc2ccc(C(=O)N(C)C3CCN(CCc4cccc5c4oc(=O)n5C4CCC(=O)NC4=O)CC3)cc21 (stereo partly drawn) [Example 315, (7R,E)-N-(1-(2-(3-(2,6-dioxopiperidin-3-yl)-2-oxo-2,3-dihydrobenzo[d]oxazol-7-yl)ethyl)piperidin-4-yl)-N,1^1,2,7-tetramethyl-3-oxo-5^2,5^3-dihydro-1^1H,5^1H-11-oxa-4-aza-5(2,1)-benzo[d]imidazola-2(2,4)-pyridina-1(4,5)-pyrazolacycloundecaphane-5^6-carboxamide] | 1.37 nM | 80.5% | 3.18 nM | 63.86%
5 | Cc1cc2cc(n1)-c1cnn(C)c1OCCC[C@@H](C)CN1/C(=N/C2=O)Nc2ccc(C(=O)N(C)C3CCC(N(C)CCc4cc(F)c([C@H]5CCC(=O)NC5=O)c(F)c4)CC3)cc21 (stereo partly drawn) [Example 278, (R,E)-N-(4-((4-((R)-2,6-dioxopiperidin-3-yl)-3,5-difluorophenethyl)(methyl)amino)cyclohexyl)-N,1^1,2^6,7-tetramethyl-3-oxo-5^2,5^3-dihydro-1^1H,5^1H-11-oxa-4-aza-5(2,1)-benzo[d]imidazola-2(2,4)-pyridina-1(4,5)-pyrazolacycloundecaphane-5^6-carboxamide] | 0.804 nM | 74.2% | 0.567 nM | 52.21%
6 | Cc1cc2cc(n1)-c1cnn(C)c1OCCC[C@@H](C)CN1/C(=N/C2=O)Nc2ccc(C(=O)N(C)C3CN(C4CCN(c5cc(F)c([C@H]6CCC(=O)NC6=O)c(F)c5)CC4)C3)cc21 [Example 309, (R,E)-N-(1-(1-(4-((R)-2,6-dioxopiperidin-3-yl)-3,5-difluorophenyl)piperidin-4-yl)azetidin-3-yl)-N,1′,2^6,7-tetramethyl-3-oxo-5^2,5^3-dihydro-1^1H,5^1H-11-oxa-4-aza-5(2,1)-benzo[d]imidazola-2(2,4)-pyridina-1(4,5)-pyrazolacycloundecaphane-5^6-carboxamide] | 0.459 nM | 83% | 0.684 nM | 65.2%
7 | Cc1cc2cc(n1)-c1cnn(C)c1OCCC[C@@H](C)CN1/C(=N/C2=O)Nc2ccc(C(=O)N3CCN(CCCc4cc(F)c([C@H]5CCC(=O)NC5=O)c(F)c4)CC3)cc21 [Example 341, (R)-3-(2,6-difluoro-4-(3-(4-((R,E)-1^1,2^6,7-trimethyl-3-oxo-5^2,5^3-dihydro-1^1H,5^1H-11-oxa-4-aza-5(2,1)-benzo[d]imidazola-2(2,4)-pyridina-1(4,5)-pyrazolacycloundecaphane-5^6-carbonyl)piperazin-1-yl)propyl)phenyl)piperidine-2,6-dione] | 0.54 nM | 86.8% | 0.621 nM | 79.84%
8 | Cc1cc2cc(n1)-c1cnn(C)c1OCCC[C@@H](C)CN1/C(=N/C2=O)Nc2ccc(CN3CC4(C3)CN(C(=O)C3CN(c5cc(F)c([C@H]6CCC(=O)NC6=O)c(F)c5)C3)C4)cc21 [Example 79, (R)-3-(2,6-difluoro-4-(3-(6-(((R,E)-1^1,2^6,7-trimethyl-3-oxo-5^2,5^3-dihydro-1^1H,5^1H-11-oxa-4-aza-5(2, 1)-benzo[d]imidazola-2(2,4)-pyridina-1(4,5)-pyrazolacycloundecaphane-5^6-yl)methyl)-2,6-diazaspiro[3.3]heptane-2-carbonyl)azetidin-1-yl)phenyl)piperidine-2,6-dione] | 0.6 nM | 90.6% | 0.7 nM | 82.2%
9 | Cc1cc2cc(n1)-c1cnn(C)c1OCCC[C@@H](C)CN1/C(=N/C2=O)Nc2ccc(CN3CC4CCC3CN4C(=O)[C@@H]3CCN(c4cc(F)c([C@H]5CCC(=O)NC5=O)c(F)c4)C3)cc21 (stereo partly drawn) [Example 164, (3R)-3-(2,6-difluoro-4-((3R)-3-(5-(((R,E)-1^1,2^6,7-trimethyl-3-oxo-5^2,5^3-dihydro-1^1H,5^1H-11-oxa-4-aza-5(2,1)-benzo[d]imidazola-2(2,4)-pyridina-1(4,5)-pyrazolacycloundecaphane-5^6-yl)methyl)-2,5-diazabicyclo[2.2.2]octane-2-carbonyl)pyrrolidin-1-yl)phenyl)piperidine-2,6-dione] | 1.46 nM | 83.1% | 1.95 nM | 73.21%
10 | Cc1cc2cc(n1)-c1cnn(C)c1OCCC[C@@H](C)CN1/C(=N/C2=O)Nc2ccc(CN3CCC(N4CCN(C(=O)[C@H]5CCN(c6ccc7c(c6)C(=O)N(C6CCC(=O)NC6=O)C7=O)C5)CC4)CC3)cc21 (some centres unmarked) [Example 216] | 9.55 nM | 81.8% | 3.02 nM | 82.64%
11 | Cc1cc2cc(n1)-c1cnn(C)c1OCCC[C@@H](C)CN1/C(=N/C2=O)Nc2ccc(C(=O)N(C)C3CCN(C4CCN(c5cc(F)c([C@H]6CCC(=O)NC6=O)c(F)c5)CC4)CC3)cc21 [Example 289, (R,E)-N-(1′-(4-((R)-2,6-dioxopiperidin-3-yl)-3,5-difluorophenyl)-[1,4′-bipiperidin]-4-yl)-N,1^1,2^6,7-tetramethyl-3-oxo-5^2,5^3-dihydro-1^1H,5^1H-11-oxa-4-aza-5(2,1)-benzo[d]imidazola-2(2,4)-pyridina-1(4,5)-pyrazolacycloundecaphane-5^6-carboxamide] | 0.454 nM | 93.8% | 0.624 nM | 91.07%
12 | Cc1cc2cc(n1)-c1cnn(C)c1OCCC[C@@H](C)CN1/C(=N/C2=O)Nc2ccc(N(C)C(=O)C3CCN(CCc4cc(F)c([C@H]5CCC(=O)NC5=O)c(F)c4)CC3)cc21 [Example 365, 1-(4-((R)-2,6-dioxopiperidin-3-yl)-3,5-difluorophenethyl)-N-methyl-N—((R,E)-1^1,2^6,7-trimethyl-3-oxo-5^2,5^3-dihydro-1^1H,5^1H-11-oxa-4-aza-5(2,1)-benzo[d]imidazola-2(2,4)-pyridina-(4,5)-pyrazolacycloundecaphane-5^6-yl)piperidine-4-carboxamide] | 0.878 nM | 91.1% | 0.625 nM | 80.74%
13 | Cc1cc2cc(n1)-c1cnn(C)c1OCCC[C@@H](C)CN1/C(=N/C2=O)Nc2ccc(CN3CCN(C(=O)[C@@H]4CCN(c5cc(F)c([C@H]6CCC(=O)NC6=O)c(F)c5)C4)C[C@H]3C)cc21 [Example 100, (R)-3-(2,6-difluoro-4-((R)-3-((R)-3-methyl-4-(((R,E)-1^1,2^6,7-trimethyl-3-oxo-5^2,5^3-dihydro-1^1H,5^1H -11-oxa-4-aza-5(2,1)-benzo[d]imidazola-2(2,4)-pyridina-(4,5)-pyrazolacycloundecaphane-5^6-yl)methyl)piperazine-1-carbonyl)pyrrolidin-1-yl)phenyl)piperidine-2,6-dione] | 1 nM | 85.5% | 0.7 nM | 72.8%
14 | Cc1cc2cc(n1)-c1cnn(C)c1OCCC[C@@H](C)CN1/C(=N/C2=O)Nc2ccc(C(=O)N3CC[C@H]4CN(CCc5cc(F)c([C@H]6CCC(=O)NC6=O)c(F)c5)CC[C@H]43)cc21 [Example 304, (R)-3-(2,6-difluoro-4-(2-((3aS,7aR)-1-((R,E)-1^1,2^6,7-trimethyl-3-oxo-5^2,5^3-dihydro-1^1H,5^1H-11-oxa-4-aza-5(2,1)-benzo[d]imidazola-2(2,4)-pyridina-1(4,5)-pyrazolacycloundecaphane-5^6-carbonyl)octahydro-5H-pyrrolo[3,2-c]pyridin-5-yl)ethyl)phenyl)piperidine-2,6-dione] | 0.61 nM | 79.9% | 0.595 nM | 78.73%
